# Experimental data published in patent US8604040B2 (priority 2010, dated 2013).
# Where two headings read alike, the source gives them in different places. Marks after values point to notes of the source that are not given here.
# Assay: log P by HPLC (EEC Directive 79/831 Annex V.A8)
# Format: physicochemical
# [1] = [b] LC-MS, acidic range, pH 2.7, 0.1% aqueous formic acid and acetonitrile
# [2] = [c] LC-MS, neutral range, pH 7.8, 0.001 molar aqueous ammonium hydrogencarbonate and acetonitrile
# [3] = [a] HPLC, acidic range, pH 2.3, 0.1% aqueous phosphoric acid and acetonitrile
# [4] = HPLC, pH 2.7, given in the preparation examples, read-out: logP (pH2.7)
smiles,measurement,setting,value
CCCCCC(C)NC(=O)c1cccc(C2CCN(C(=O)Cn3nc(C(F)F)cc3C(F)F)CC2)n1 (centres unmarked) [Example 83],log P,[1],3.99
same,log P,[2],3.95
Cc1cc(C(F)(F)F)nn1CC(=O)N1CCC(c2cccc(C(=O)N(C)Cc3ccccc3Br)n2)CC1 [Example 2],log P,[1],3.47
same,log P,[2],3.49
Cc1cc(C(F)(F)F)nn1CC(=O)N1CCC(c2cccc(C(=O)NC3CCCCC3)n2)CC1 [Example 18],log P,[2],3.46^[c]
O=C(NCc1cccs1)c1cccc(C2CCN(C(=O)Cn3nc(C(F)F)cc3C(F)F)CC2)n1 [Example 91],log P,[1],2.98
same,log P,[2],2.97
CCOC(=O)c1cccc(C2CCN(C(=O)Cn3nc(C(F)(F)F)cc3C)CC2)n1 [Example 132],log P,[1],2.73^[b]
Cc1cc(C(F)(F)F)nn1CC(=O)N1CCC(c2cccc(C(=O)OCc3ccc(F)cc3F)n2)CC1 [Example 42],log P,[1],3.6^[b]
O=C(Oc1cccc2ccccc12)c1cccc(C2CCN(C(=O)Cn3nc(C(F)F)cc3C(F)F)CC2)n1 [Example 110],log P,[1],3.82^[b]
Cc1cc(C(F)(F)F)nn1CC(=O)N1CCC(c2cccc(C(=O)NCc3ccc(F)cc3F)n2)CC1 [Example 22],log P,[1],3.36^[b]; 3.36^[c]
same,log P,[2],3.36^[b]; 3.36^[c]
CCCCCC(C)NC(=O)c1cccc(C2CCN(C(=O)Cn3nc(C(F)(F)F)cc3C)CC2)n1 (racemic) [Example 17],log P,[1],4.17
same,log P,[2],4.13
O=C(SCc1c(F)cccc1F)c1cccc(C2CCN(C(=O)Cn3nc(C(F)F)cc3C(F)F)CC2)n1 [Example 113],log P,[3],4.12
same,log P,[2],4.13
Cc1cccnc1COC(=O)c1cccc(C2CCN(C(=O)Cn3nc(C(F)(F)F)cc3C)CC2)n1 [Example 49],log P,[1],2.23^[b]
O=C(NCc1ccccc1Cl)c1cccc(N2CCN(C(=O)Cn3nc(C(F)F)cc3C(F)F)CC2)n1 [Example 146],log P,[3],3.24
same,log P,[2],3.26
Cc1ccccc1COC(=O)c1cccc(C2CCN(C(=O)Cn3nc(C(F)(F)F)cc3C)CC2)n1 [Example 44],log P,[1],3.8^[b]
Cc1cc(C(F)(F)F)nn1CC(=O)N1CCC(c2cccc(C(=O)OCC(C)(C)C)n2)CC1 [Example 37],log P,[1],3.86^[b]
Cc1cc(C(F)(F)F)nn1CC(=O)N1CCC(c2cccc(C(=O)SC3CCCCC3)n2)CC1 [Example 53],log P,[2],4.83^[c]
Cc1cc(C(F)(F)F)nn1CC(=O)N1CCC(c2cccc(C(=O)OCc3c(F)cc(F)cc3F)n2)CC1 [Example 43],log P,[1],3.69^[b]
O=C(SC1CCCCC1)c1cccc(C2CCN(C(=O)Cn3nc(C(F)F)cc3C(F)F)CC2)n1 [Example 112],log P,[3],4.63
same,log P,[2],4.65
O=C(OCc1ccc(F)cc1F)c1cccc(C2CCN(C(=O)Cn3nc(C(F)F)cc3C(F)F)CC2)n1 [Example 103],log P,[1],3.54^[b]
CCCCCCCSC(=O)c1cccc(N2CCN(C(=O)Cn3nc(C(F)F)cc3C(F)F)CC2)n1 [Example 130],log P,[3],5.4
same,log P,[2],5.38
O=C(NCc1ccc(Cl)cc1Cl)c1cccc(C2CCN(C(=O)Cn3nc(C(F)F)cc3C(F)F)CC2)n1 [Example 86],log P,[1],3.86^[b]; 3.86^[c]
same,log P,[2],3.86^[b]; 3.86^[c]
O=C(OCc1ccccc1F)c1cccc(C2CCN(C(=O)Cn3nc(C(F)F)cc3C(F)F)CC2)n1 [Example 106],log P,[1],3.45^[b]
Cc1cc(C(F)(F)F)nn1CC(=O)N1CCC(c2cccc(C(=O)NC(C)c3ccccc3Cl)n2)CC1 (racemic) [Example 16],log P,[1],3.82
same,log P,[2],3.75
Cc1cc(C(F)(F)F)nn1CC(=O)N1CCN(c2cccc(C(=O)N(C)C3CCCc4ccccc43)n2)CC1 (centres unmarked) [Example 147],log P,[1],3.55
same,log P,[2],3.59
Cc1ccccc1CSC(=O)c1cccc(N2CCN(C(=O)Cn3nc(C(F)(F)F)cc3C)CC2)n1 [Example 145],log P,[1],4.52
same,log P,[2],4.55
COCCOC(=O)c1cccc(C2CCN(C(=O)Cn3nc(C(F)(F)F)cc3C)CC2)n1 [Example 41],log P,[1],2.46^[b]
O=C(Sc1cccc2ccccc12)c1cccc(C2CCN(C(=O)Cn3nc(C(F)F)cc3C(F)F)CC2)n1 [Example 114],log P,[3],4.4
same,log P,[2],4.42
CCOC(=O)c1cccc(C2CCN(C(=O)OC(C)(C)C)CC2)n1 [Ethyl 6-[1-(tert-butoxycarbonyl)piperidin-4-yl]pyridine-2-carboxylate],chromatographic logP,[4],3.29
Cc1cc(C(F)(F)F)nn1CC(=O)N1CCC(c2cccc(C(=O)NCc3c(F)cccc3F)n2)CC1 [Example 24],log P,[1],3.33
same,log P,[2],3.26
CCCCCCCSC(=O)c1cccc(C2CCN(C(=O)Cn3nc(C(F)F)cc3C(F)F)CC2)n1 [Example 129],log P,[3],5.43
same,log P,[2],5.44
Cc1cc(C(F)(F)F)nn1CC(=O)N1CCN(c2cccc(C(=O)N(C)C3CCCCC3)n2)CC1 [Example 64],log P,[1],3.19
same,log P,[2],3.21
CCOC(=O)c1cccc(C2CCNCC2)n1 [4-[6-(Ethoxycarbonyl)pyridin-2-yl]piperidinium chloride],chromatographic logP,[4],0.55
Cc1csc(COC(=O)c2cccc(C3CCN(C(=O)Cn4nc(C(F)F)cc4C(F)F)CC3)n2)c1 [Example 109],log P,[1],3.6^[b]
Cc1cc(C(F)(F)F)nn1CC(=O)N1CCC(c2cccc(C(=O)N(C)C3CCCCC3)n2)CC1 [Example 11],log P,[1],3.15
same,log P,[2],3.18
"CC(C)(C)OC(=O)N1CC=C(c2cccc(Br)n2)CC1 [tert-Butyl 6-bromo-3′,6′-dihydro-2,4′-bipyridine-1′(2′H)-carboxylate]",chromatographic logP,[4],4.14
CCCCCCCOC(=O)c1cccc(C2CCN(C(=O)Cn3nc(C(F)F)cc3C(F)F)CC2)n1 [Example 102],log P,[1],4.59^[b]
Cc1cc(C(F)(F)F)nn1CC(=O)N1CCC(c2cccc(C(=O)OCc3ccccc3C(F)(F)F)n2)CC1 [Example 45],log P,[1],3.97^[b]
O=C(NCc1ccccc1Cl)c1cccc(C2CCN(C(=O)Cn3nc(C(F)F)cc3C(F)F)CC2)n1 [Example 88],log P,[1],3.35
same,log P,[2],3.39
O=C(NCc1c(F)cccc1F)c1cccc(C2CCN(C(=O)Cn3nc(C(F)F)cc3C(F)F)CC2)n1 [Example 89],log P,[1],3.11
same,log P,[2],3.14
O=C(Sc1ccccc1)c1cccc(C2CCN(C(=O)Cn3nc(C(F)F)cc3C(F)F)CC2)n1 [Example 121],log P,[3],3.8
same,log P,[2],3.85
O=C(OCc1ccccc1Cl)c1cccc(C2CCN(C(=O)Cn3nc(C(F)F)cc3C(F)F)CC2)n1 [Example 105],log P,[1],3.77^[b]
"CCOC(=O)c1cccc(C2CCN(C(=O)Cn3nc(C(F)F)cc3C(F)F)CC2)n1 [Example 131, Ethyl 6-(1-{[3,5-bis(difluoromethyl)-1H-pyrazol-1-yl]acetyl}piperidin-4-yl)pyridine-2-carboxylate]",chromatographic logP,"HPLC (LC-MS), [b] LC-MS, acidic range, pH 2.7, 0.1% aqueous formic acid and acetonitrile, read-out: log P",2.68
same,chromatographic logP,[4],2.68
Cc1cc(C(F)(F)F)nn1CC(=O)N1CCC(c2cccc(C(=O)OC3C=CCCC3)n2)CC1 (centres unmarked) [Example 33],log P,[1],3.64^[b]
O=C(Sc1ccccc1)c1cccc(N2CCN(C(=O)Cn3nc(C(F)F)cc3C(F)F)CC2)n1 [Example 122],log P,[3],3.79
same,log P,[2],3.81
CN(Cc1ccc(Cl)cc1Cl)C(=O)c1cccc(C2CCN(C(=O)Cn3nc(C(F)F)cc3C(F)F)CC2)n1 [Example 79],log P,[1],3.66
same,log P,[2],3.73
CC(C)(C)OC(=O)N1CCC(c2cccc(C(=O)O)n2)CC1 [6-[1-(tert-Butoxycarbonyl)piperidin-4-yl]pyridine-2-carboxylic acid],chromatographic logP,[4],1.78
CC(NC(=O)c1cccc(C2CCN(C(=O)Cn3nc(C(F)F)cc3C(F)F)CC2)n1)c1ccccc1Cl (centres unmarked) [Example 82],log P,[1],3.53
same,log P,[2],3.61
Cc1cc(C(F)(F)F)nn1CC(=O)N1CCC(c2cccc(C(=O)N3CCOc4ccccc43)n2)CC1 [Example 15],log P,[1],3.04^[b]; 3.04^[c]
same,log P,[2],3.04^[b]; 3.04^[c]
Cc1cc(C(F)(F)F)nn1CC(=O)N1CCC(c2cccc(C(=O)N(C)Cc3ccc(Cl)cc3Cl)n2)CC1 [Example 13],log P,[1],3.85^[b]; 3.85^[c]
same,log P,[2],3.85^[b]; 3.85^[c]
Cc1cc(C(F)(F)F)nn1CC(=O)N1CCN(c2cccc(C(=O)Oc3ccc4ccccc4c3)n2)CC1 [Example 76],log P,[1],4.01
same,log P,[2],4.02
Cc1ccnc(COC(=O)c2cccc(C3CCN(C(=O)Cn4nc(C(F)(F)F)cc4C)CC3)n2)c1 [Example 50],log P,[1],3.67^[b]
"O=C(O)c1cccc(N2CCN(C(=O)Cn3nc(C(F)F)cc3C(F)F)CC2)n1 [6-(4-{[3,5-Bis(difluoromethyl)-1H-pyrazol-1-yl]acetyl}piperazin-1-yl)pyridine-2-carboxylic acid]",chromatographic logP,[4],0.68
O=C(OCc1c(F)cc(F)cc1F)c1cccc(C2CCN(C(=O)Cn3nc(C(F)F)cc3C(F)F)CC2)n1 [Example 104],log P,[1],3.57^[b]
Cc1cc(C(F)(F)F)nn1CC(=O)N1CCC(c2cccc(C(=O)SCc3ccc(F)cc3)n2)CC1 [Example 59],log P,[1],4.29
same,log P,[2],4.31
CC(C)(C)OC(=O)N1CCC(O)(c2cccc(Br)n2)CC1 [tert-Butyl 4-(6-bromopyridin-2-yl)-4-hydroxypiperidine-1-carboxylate],chromatographic logP,[4],3.05
Cc1cc(C(F)(F)F)nn1CC(=O)N1CCC(c2cccc(C(=O)Nc3c(F)cccc3F)n2)CC1 [Example 28],log P,[1],3.13
same,log P,[2],3.15
Cc1cc(C(F)(F)F)nn1CC(=O)N1CCC(c2cccc(C(=O)NCc3ccccn3)n2)CC1 [Example 25],log P,[1],1.97
same,log P,[2],2.44
O=C(Sc1cccs1)c1cccc(N2CCN(C(=O)Cn3nc(C(F)F)cc3C(F)F)CC2)n1 [Example 124],log P,[3],3.73
same,log P,[2],3.75
Cc1cc(C(F)(F)F)nn1CC(=O)N1CCC(c2cccc(C(=O)OCC#Cc3ccccc3Cl)n2)CC1 [Example 36],log P,[1],4.03^[b]
O=C(NC1CCc2ccccc21)c1cccc(C2CCN(C(=O)Cn3nc(C(F)F)cc3C(F)F)CC2)n1 (centres unmarked) [Example 84],log P,[1],3.4
same,log P,[2],3.44
